We go through seven molecules from patent US7589123B2, “Chemical compounds” (Phytopharm PLC, priority 2006, dated 2009).

For data set [1], the system named is α-smooth muscle actin (α-SMA) mRNA. Kind of data set: Anti-remodelling activity in human lung fibroblasts (HFL1): TGFβ-induced α-SMA mRNA (Assay 4). The class given is cell-based. The note with it: Homo sapiens, HFL1 cells, TGFβ 10 ng/ml, 24 h, read-out: Inhibition of α-SMA mRNA synthesis (%). Put shortly: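 Real-time RT-PCR of α-SMA mRNA, GAPDH as reference, measured after 24 h exposure of low-serum-primed HFL1 cells to 10 ng/ml TGFβ with test compounds (3 and 30 μM) in 10% FBS medium. Readout is inhibition of TGFβ-driven α-SMA mRNA overexpression.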

The subject of data set [2] is histamine-induced contractions in guinea pig ileum. Kind of data set: Inhibition of histamine-induced contractions in guinea pig ileum (Assay 3). The note with it: Cavia porcellus, histamine 1.7 μM, read-out: Inhibition of histamine-induced contraction (%). The method, boiled down:
(§1)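 Isolated male guinea pig ileum strips in Krebs at 32° C, pH 7.4, 1 g resting tension, isotonic recording. Contraction to test compound (3 and 30 μM) alone recorded, then inhibition of responses to histamine 1.7 μM or 5-HT 2.6 μM (~EC60-70, 5 min) measured in its continued presence.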

The test system of another data set is WI-38 cells. Kind of data set: Viability of WI-38 cells, Alamar Blue (Assay 5). Format: cell-based, human. The method, boiled down:
(§2)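 WI-38 fibroblasts stimulated overnight at 37 °C with 1 nM IL-1α plus test compound at 3 and 30 μM in MEM with 10% FBS, pH 7.3; released PGE2 in supernatant quantified by radioimmunoassay as percent inhibition. Viability then checked by Alamar Blue, 4 h at 37 °C, fluorescence ex 530/em 590 nm.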

Data set [3] deals with 5-HT-induced contractions in guinea pig ileum. Put plainly: Inhibition of 5-HT-induced contractions in guinea pig ileum (Assay 3). Conditions: Cavia porcellus, 5-HT 2.6 μM, read-out: Inhibition of 5-HT-induced contraction (%). The method, boiled down:
as §1

For a further data set, the target named is TRPV1 receptor (Rattus norvegicus, UniProt O35433). Kind of data set: TRPV1 modulation in DRG neurones: CGRP release in absence and presence of capsaicin (Assay 2). The class given is cell-based. Set-up: The culture used for this experiment contained sensory neurones, Schwann cells and fibroblasts; endogenous in cells; host or cells: primary rat DRG sensory neurone culture (with Schwann cells and fibroblasts). The note with it: 20 min; for inhibition at 3 µM: 3 μM with capsaicin 1 μM; for inhibition at 3 µM / inhibition at 30 µM: −ve: inhibition, +ve: potentiation of capsaicin response, read-out: Effect of test compounds on capsaicin (1 μM)-induced CGRP release (%); for inhibition at 30 µM: 30 μM with capsaicin 1 μM; for Emax at 3 µM: test compound alone 3 μM; for Emax at 3 µM / Emax at 30 µM: rat DRG sensory neurones, read-out: CGRP release (% of capsaicin (1 μM) response); for Emax at 30 µM: test compound alone 30 μM.

A further data set concerns the target T1, 5-lipoxygenase (Homo sapiens, UniProt P09917).
T1 construct: endogenous in cells; host or cells: human peripheral blood mononuclear leukocytes (PBMLs)
T1 sequence (P09917 1-674): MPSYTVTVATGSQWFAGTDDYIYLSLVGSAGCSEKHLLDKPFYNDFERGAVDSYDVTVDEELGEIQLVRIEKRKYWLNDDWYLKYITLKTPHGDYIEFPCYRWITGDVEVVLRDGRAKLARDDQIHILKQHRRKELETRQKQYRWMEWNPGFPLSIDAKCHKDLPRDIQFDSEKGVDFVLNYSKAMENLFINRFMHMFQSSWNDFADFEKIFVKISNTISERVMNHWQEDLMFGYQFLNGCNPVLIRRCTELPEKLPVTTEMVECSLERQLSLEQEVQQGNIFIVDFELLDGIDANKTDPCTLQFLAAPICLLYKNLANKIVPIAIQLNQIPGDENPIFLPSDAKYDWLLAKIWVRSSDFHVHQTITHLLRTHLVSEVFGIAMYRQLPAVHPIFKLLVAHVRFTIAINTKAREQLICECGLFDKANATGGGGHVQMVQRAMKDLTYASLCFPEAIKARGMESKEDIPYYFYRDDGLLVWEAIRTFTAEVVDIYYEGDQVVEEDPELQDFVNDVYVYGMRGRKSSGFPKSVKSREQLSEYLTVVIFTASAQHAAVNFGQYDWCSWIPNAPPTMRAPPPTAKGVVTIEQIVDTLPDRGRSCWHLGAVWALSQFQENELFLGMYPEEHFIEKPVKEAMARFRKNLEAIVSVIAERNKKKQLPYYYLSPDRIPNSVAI
Kind of data set: 5-lipoxygenase activity (LTB4) in human peripheral blood mononuclear leukocytes (Assay 6). The note with it: human PBMLs, A23187 30 μM, read-out: Inhibition of 5-LO (%). The class given is cell-based. Put shortly: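 Human PBMLs (5×10^6 cells, Ficoll-isolated) stimulated with 30 μM A23187 plus compound at 3 or 30 μM or 0.1% DMSO in HBSS pH 7.4, 37° C., 15 min. After NaOH neutralisation and centrifugation, supernatant LTB4 measured by enzyme immunoassay.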

Data set [4] has as its system IL-1α-induced PGE2 release. Put plainly: IL-1α-induced PGE2 release in human diploid lung fibroblasts (WI-38) (Assay 5). The note with it: Homo sapiens, WI-38 cells, IL-1α 1 nM, overnight. The class given is cell-based. Put shortly:
as §2

SMILES strings stand for the structures.

TRPV1 receptor, sequence (O35433 whole entry): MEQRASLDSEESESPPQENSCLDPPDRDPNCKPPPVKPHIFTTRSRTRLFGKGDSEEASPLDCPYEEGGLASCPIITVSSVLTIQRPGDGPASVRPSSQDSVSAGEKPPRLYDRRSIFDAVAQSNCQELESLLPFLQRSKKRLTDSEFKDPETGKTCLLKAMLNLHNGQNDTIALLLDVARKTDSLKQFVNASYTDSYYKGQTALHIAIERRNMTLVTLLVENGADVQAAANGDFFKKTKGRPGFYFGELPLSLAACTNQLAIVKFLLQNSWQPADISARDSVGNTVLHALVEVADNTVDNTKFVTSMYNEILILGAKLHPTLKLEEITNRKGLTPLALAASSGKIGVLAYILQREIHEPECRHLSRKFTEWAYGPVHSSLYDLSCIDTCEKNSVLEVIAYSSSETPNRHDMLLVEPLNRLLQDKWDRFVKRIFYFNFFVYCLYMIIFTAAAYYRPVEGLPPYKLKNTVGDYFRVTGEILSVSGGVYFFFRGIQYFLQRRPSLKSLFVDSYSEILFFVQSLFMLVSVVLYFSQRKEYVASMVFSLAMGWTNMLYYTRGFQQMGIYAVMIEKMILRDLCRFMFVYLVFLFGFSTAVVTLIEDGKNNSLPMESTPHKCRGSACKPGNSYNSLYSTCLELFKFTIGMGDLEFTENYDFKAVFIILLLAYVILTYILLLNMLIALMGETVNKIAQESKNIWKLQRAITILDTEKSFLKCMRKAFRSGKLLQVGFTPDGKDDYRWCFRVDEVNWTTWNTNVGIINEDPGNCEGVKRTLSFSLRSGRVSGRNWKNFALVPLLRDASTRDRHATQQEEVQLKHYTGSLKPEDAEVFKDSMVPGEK

Consider `COc1cc(CCC(=O)CC(=O)c2cccc3ccccc23)ccc1O` [Compound 27, 5-(4-Hydroxy-3-methoxylphenyl)-1-(naphthalene-1-yl)-pentane-1,3-dione], for which the inhibition at 3 µM in data set [1] worked out at 6%; in data set [2] it was 2%; in data set [3] it was 1%; on TRPV1 receptor it was 46%; at 5-lipoxygenase, 92%; in data set [4], 92%. The inhibition at 30 µM is 79% in data set [1]; 68% in data set [2]; 63% in data set [3]; -66% at TRPV1 receptor; 98% at 5-lipoxygenase; 99% in data set [4]. The “Decrease in cell viability (%)” value was 4% in the data set with WI-38 cells (3 μM) and 40% in the data set with WI-38 cells (30 μM). For the same molecule, the Emax at 3 µM at TRPV1 receptor was 85%. Also, the Emax at 30 µM on TRPV1 receptor stood at 162%.
For the molecule `COc1cc(CCC(=O)CC(=O)Cc2ccccc2)ccc1O` [Compound 28, 6-(4-Hydroxy-3-methoxyphenyl)-1-phenyl-hexane-2,4-dione], the inhibition at 3 µM in data set [1] stood at 12%; in data set [2], 7%; in data set [3], 6%; at TRPV1 receptor, 51%; on 5-lipoxygenase it was 35%; in data set [4] it was 87%. In addition, the inhibition at 30 µM was 47% in data set [1]; 18% in data set [2]; 85% in data set [3]; -29% on TRPV1 receptor; 98% at 5-lipoxygenase; 99% in data set [4]. Moreover, the “Decrease in cell viability (%)” value with WI-38 cells (3 μM) was determined as 1%; in the data set with WI-38 cells (30 μM), 6%. Also, the Emax at 3 µM on TRPV1 receptor came out at 29%. For the same molecule, the Emax at 30 µM on TRPV1 receptor came out at 107%.
As for `COc1cc(CCC(=O)CC(=O)Cc2cccc3ccccc23)ccc1O` [Compound 29, 6-(4-Hydroxy-3-methoxyphenyl)-1-naphthalen-1-yl-hexane-2,4-dione], the inhibition at 3 µM in data set [1] turned out to be 33%; in data set [2] it was 17%; in data set [3], 5%; on TRPV1 receptor, 46%; on 5-lipoxygenase, 47%; in data set [4], 86%. Moreover, the inhibition at 30 µM in data set [1] was 86%; in data set [2], 89%; on TRPV1 receptor it was -41%; at 5-lipoxygenase, 98%; in data set [4], 99%. Besides, the “Decrease in cell viability (%)” value with WI-38 cells (3 μM) is reported as −1%; with WI-38 cells (30 μM), 12%. Moreover, the Emax at 3 µM on TRPV1 receptor is 65%. For the same molecule, the Emax at 30 µM on TRPV1 receptor is 164%.
Regarding `COc1cc(CCC(=O)CC(=O)C(c2ccccc2)c2ccccc2)ccc1O` [Compound 30, 6-(4-Hydroxy-3-methoxyphenyl)-1,1-diphenyl-hexane-2,4-dione], the inhibition at 3 µM is 84% in data set [1]; 8% in data set [2]; 6% in data set [3]; 49% at TRPV1 receptor; 50% on 5-lipoxygenase; 46% in data set [4]. Further, the inhibition at 30 µM is 100% in data set [1]; 89% in data set [2]; -150% on TRPV1 receptor; 99% on 5-lipoxygenase; 99% in data set [4]. Further, the “Decrease in cell viability (%)” value with WI-38 cells (3 μM) is given as −10%; in the data set with WI-38 cells (30 μM) it was 29%. Moreover, the Emax at 3 µM on TRPV1 receptor worked out at 70%. In addition, the Emax at 30 µM on TRPV1 receptor stood at 122%.
In the case of `COc1cc(CCC(=O)CC(=O)C(C)(C)c2ccccc2)ccc1O` [Compound 31, 6-(4-Hydroxy-3-methoxyphenyl)-1,1-dimethyl-1-phenyl-hexane-2,4-dione], the inhibition at 3 µM in data set [1] stood at 34%; in data set [2], 12%; in data set [3], 10%; at TRPV1 receptor, 17%; at 5-lipoxygenase it was 32%; in data set [4], 83%. Also, the inhibition at 30 µM in data set [1] was 80%; in data set [2], 68%; in data set [3], 96%; at TRPV1 receptor, -77%; at 5-lipoxygenase, 95%; in data set [4], 101%. Also, the “Decrease in cell viability (%)” value was 5% in the data set with WI-38 cells (3 μM) and −7% in the data set on WI-38 cells (30 μM). Further, on TRPV1 receptor, the Emax at 3 µM is 56%. For the same molecule, on TRPV1 receptor, the Emax at 30 µM is 109%.
Consider `COc1cc(CCC(=O)C(C)(C)C(=O)C(C)(C)C)ccc1O` [Compound 71, 1-(4-Hydroxy-3-methoxyphenyl)-4,4,6,6-tetramethylheptane-3,5-dione], for which the inhibition at 3 µM was -1% in data set [1]; 0% in data set [2]; 3% in data set [3]; 26% on TRPV1 receptor; 6% on 5-lipoxygenase; 41% in data set [4]. In addition, the inhibition at 30 µM in data set [1] came out at 20%; in data set [2], 35%; in data set [3], 53%; at TRPV1 receptor, 29%; at 5-lipoxygenase, 48%; in data set [4], 95%. Also, the figures for the “Decrease in cell viability (%)” value with WI-38 cells (3 μM) and in the data set with WI-38 cells (30 μM) were −1% and 11%, respectively. For the same molecule, on TRPV1 receptor, the Emax at 3 µM was found to be 48%. Moreover, the Emax at 30 µM at TRPV1 receptor was found to be 38%.
As for `COc1cc(CCC(=O)CC(=O)c2ccccc2Cl)ccc1O` [Compound 74, 1-(2-Chlorophenyl)-5-(4-hydroxy-3-methoxyphenyl)pentane-1,3-dione], the inhibition at 3 µM in data set [1] was -4%; in data set [2], 1%; in data set [3], 10%; on TRPV1 receptor, 15%; on 5-lipoxygenase it was 60%; in data set [4], 99%. Further, the inhibition at 30 µM was found to be 53% in data set [1]; 41% in data set [2]; 89% in data set [3]; 6% on TRPV1 receptor; 98% on 5-lipoxygenase; 101% in data set [4]. The figures for the “Decrease in cell viability (%)” value in the data set with WI-38 cells (3 μM) and in the data set with WI-38 cells (30 μM) were 1% and 16%, respectively. For the same molecule, the Emax at 3 µM at TRPV1 receptor stood at 54%. The Emax at 30 µM on TRPV1 receptor was determined as 75%.
